Assay: solvent given as SMILES

`c1ccc(-c2nc(-c3ccccc3)nc(-c3cc(-n4c5ccccc5c5ncccc54)cc(-n4c5ccccc5c5ncccc54)c3)n2)cc1` gave a fluorescence lifetime (in O=P(c1ccccc1)(c1ccccc1)c1ccc2oc3ccc(P(=O)(c4ccccc4)c4ccccc4)cc3c2c1) of 6.6 ns.
Work on `N#Cc1c(-n2c3ccccc3c3ccccc32)c(-n2c3ccccc3c3ccccc32)c(C#N)c(-n2c3ccccc3c3ccccc32)c1-n1c2ccccc2c2ccccc21` yielded a fluorescence lifetime (in Cc1ccccc1) of 8.8 ns.
With `c1cc2c3c(cccc3c1)C(N1CCOCCOCCN(C3=Nc4cccc5cccc3c45)CCOCC1)=N2` the fluorescence lifetime (in CC#N) was 0.51 ns.
Compound `COc1ccc(-c2csc(/C(C#N)=C/c3ccc(Cl)cc3)n2)cc1` has a fluorescence lifetime (in CC#N) of 3.61 ns.
`CCCCCCN1C(=O)C(c2ccc(-c3ccc(-n4c5ccccc5c5ccccc54)cc3)cc2)=C(c2ccc(-c3ccc(-n4c5ccccc5c5ccccc54)cc3)cc2)C1=O` gave a fluorescence lifetime (in ClC(Cl)Cl) of 6.4 ns and a fluorescence lifetime (in c1ccc2c(c1)c1ccccc1n2-c1ccc(-c2ccc(-n3c4ccccc4c4ccccc43)cc2)cc1) of 5.5 ns.
Work on `CN(C)c1ccc(/C=C/C=C/c2ccc(C#N)cc2)cc1` yielded a fluorescence lifetime (in C1CCOC1) of 0.35 ns, a fluorescence lifetime (in CC#N) of 0.56 ns and a fluorescence lifetime (in CCCCCC) of 0.28 ns. For the same compound, the fluorescence lifetime (in CCCCOCCCC) was 0.28 ns, the fluorescence lifetime (in CCO) was 0.51 ns and the fluorescence lifetime (in CCOCC) was 0.32 ns.
`COc1ccc2c(=O)c3c([nH]c2c1)-c1cc(Cl)ccc1NC3(C)C` gave a fluorescence lifetime (in C1CCOC1) of 8.91 ns, a fluorescence lifetime (in CC#N) of 9.32 ns and a fluorescence lifetime (in CCCCO) of 9.93 ns. For the same compound, the fluorescence lifetime (in CCCO) was 9.91 ns, the fluorescence lifetime (in CCO) was 9.44 ns and the fluorescence lifetime (in CCOC(C)=O) was 8.48 ns. For the same compound, the fluorescence lifetime (in CN(C)C=O) was 10.4 ns, the fluorescence lifetime (in CO) was 9.17 ns and the fluorescence lifetime (in CS(C)=O) was 11.2 ns. For the same compound, the fluorescence lifetime (in Cc1ccccc1) was 7.94 ns, the fluorescence lifetime (in ClC(Cl)(Cl)Cl) was 5.41 ns and the fluorescence lifetime (in ClCCl) was 9.85 ns. For the same compound, the fluorescence lifetime (in O) was 6.93 ns and the fluorescence lifetime (in c1ccccc1) was 8.01 ns.
`COC(=O)c1cc(=O)n(C)c2cc(-c3ccc(Oc4ccccc4)cc3)sc12` showed a fluorescence lifetime (in ClCCl) of 2.83 ns.
In the case of `C1=Cc2ccccc2Cc2ccccc21`, the fluorescence lifetime (in CC#N) is reported as 3.72 ns.
In the case of `COc1ccc(Nc2nc(/C=C/c3ccccc3)[n+]([O-])c3c2CCCC3)cc1`, the fluorescence lifetime (in ClCCl) is reported as 8.2 ns.
For `Cc1cccc(C)c1Nc1ccc(/C=C/c2ccc3ccccc3c2)cc1`, the fluorescence lifetime (in CC#N) was 0.2 ns.
Compound `Cc1c(OCC(=O)O)cc2c3c([nH]c2c1C)C(=O)CCC3` has a fluorescence lifetime (in C1COCCO1) of 0.54 ns, a fluorescence lifetime (in CC#N) of 0.97 ns and a fluorescence lifetime (in CCO) of 1.52 ns. For the same compound, the fluorescence lifetime (in CS(C)=O) was 2.34 ns, the fluorescence lifetime (in Cc1ccccc1) was 0.52 ns and the fluorescence lifetime (in O) was 1.77 ns.
With `Oc1ccc2ccccc2c1-c1nc2c(c3c1-c1ccccc1CC3)-c1ccccc1CC2` the fluorescence lifetime (in ClCCl) was 0.97 ns.
`O=C(O)c1ccc(-c2nc(-c3ccccc3)c3ccccn23)cc1` showed a fluorescence lifetime (in CC#N) of 1.5 ns.
For `O=C(c1ccc(N2c3ccccc3Oc3ccccc32)cc1)c1cccc(C(=O)c2ccc(N3c4ccccc4Oc4ccccc43)cc2)c1`, the fluorescence lifetime (in c1cc(-c2cccc(-n3c4ccccc4c4ccccc43)c2)cc(-n2c3ccccc3c3ccccc32)c1) was 24 ns.
With `CCN(CC)c1ccc2c(c1)oc(=O)c1c(-c3ccccc3C(=O)O)c3ccc(=[N+](CC)CC)cc-3oc12` the fluorescence lifetime (in CCO) was 2.29 ns, the fluorescence lifetime (in ClC(Cl)Cl) was 4.16 ns and the fluorescence lifetime (in O) was 0.31 ns.
Compound `CC(C)(C)c1ccc(-c2nnc(-c3c(-n4c5ccccc5c5ccccc54)c(-n4c5ccccc5c5ccccc54)c(-c4nnc(-c5ccc(C(C)(C)C)cc5)o4)c(-n4c5ccccc5c5ccccc54)c3-n3c4ccccc4c4ccccc43)o2)cc1` has a fluorescence lifetime (in Cc1ccccc1) of 12.7 ns.
For `CCCCCCCCC1(CCCCCCCC)c2cc(-c3ccc([N+](=O)[O-])cc3)ccc2-c2ccc(-c3ccc([N+](=O)[O-])cc3)cc21`, the fluorescence lifetime (in CN(C)C=O) was 1.92 ns and the fluorescence lifetime (in CS(C)=O) was 1.82 ns.
Compound `CCOC(=O)C1=CNC=C(C(=O)OCC)C1c1ccccc1` has a fluorescence lifetime (in C1CCOC1) of 7.83 ns and a fluorescence lifetime (in CO) of 13.8 ns.
`[NH3+]c1cc([NH3+])cc(-c2nc3ccccc3s2)c1` showed a fluorescence lifetime (in O) of 0.59 ns.
Compound `Cn1nc(-c2ccccc2)c2nc3cc(F)ccc3nc21` has a fluorescence lifetime (in C1CCCCC1) of 23 ns, a fluorescence lifetime (in C1CCOC1) of 23 ns and a fluorescence lifetime (in CC#N) of 10.1 ns.
For `CC1=CC(C)=[N+]2C1=C(c1ccc(I)cc1)c1c(C)cc(C)n1[B-]2(OCc1ccccc1)OCc1ccccc1`, the fluorescence lifetime (in ClC(Cl)Cl) was 3.94 ns.
`CCC1(CC)c2cc(C#Cc3cccs3)ccc2-c2c1c1c(c3c2C(CC)(CC)c2cc(C#Cc4cccs4)ccc2-3)C(CC)(CC)c2cc(C#Cc3cccs3)ccc2-1` showed a fluorescence lifetime (in C1CCOC1) of 1.5 ns.
With `C[Si](C)(C)C#CC(C#C[Si](C)(C)C)=Cc1ccc(C=C(C#C[Si](C)(C)C)C#C[Si](C)(C)C)cc1` the fluorescence lifetime (in ClC(Cl)Cl) was 0.6 ns.
`Cc1cc(C)c(-c2nnc(-c3ccc(-n4c5ccccc5c5ccccc54)c(C)c3)o2)c(C)c1` gave a fluorescence lifetime (in CCO) of 1.94 ns.
`c1ccc(-c2oc(-c3ccccc3)c3ccccc23)cc1` showed a fluorescence lifetime (in CCO) of 4.72 ns, a fluorescence lifetime (in CN(C)C=O) of 5.08 ns and a fluorescence lifetime (in CS(C)=O) of 5.3 ns.
Compound `CCCCCCOc1ccc(N(c2ccc(OCCCCCC)cc2)c2ccc(-c3sc(-c4ccc(N(c5ccc(OCCCCCC)cc5)c5ccc(OCCCCCC)cc5)cc4)c4nc(-c5ccc(OC)cc5)c(-c5ccc(OC)cc5)nc34)cc2)cc1` has a fluorescence lifetime (in CN(C)C=O) of 0.57 ns.
With `CCCCN1C(=O)c2cc(Oc3ccc(C(C)(C)C)cc3)c3c4c(Oc5ccc(C(C)(C)C)cc5)cc5c(=O)[nH]/c(=C\c6ccccn6)c6cc(Oc7ccc(C(C)(C)C)cc7)c(c7c(Oc8ccc(C(C)(C)C)cc8)cc(c2c37)C1=O)c4c56` the fluorescence lifetime (in C1CCOC1) was 3.33 ns, the fluorescence lifetime (in Cc1ccccc1) was 3.57 ns and the fluorescence lifetime (in ClCCl) was 4.05 ns.
`CCCCCCCCn1c(=O)c2cc3c(C#Cc4ccc(N(c5ccccc5)c5ccccc5)cc4)c4cc5c(=O)n(CCCCCCCC)c(=O)c5cc4c(C#Cc4ccc(N(c5ccccc5)c5ccccc5)cc4)c3cc2c1=O` gave a fluorescence lifetime (in ClC(Cl)Cl) of 3.4 ns.
